In US6057371A, “Sigma receptor ligands and the use thereof” (Virginia Commonwealth University, priority 1992, dated 2000):
Read-outs that look alike come from different tables or passages of the source.

How the values were obtained:
sigma-1 binding site = molecular target: T1, sigma-1 binding site (Cavia porcellus, UniProt Q60492); assay: biochemical; design: species or system guinea pig
T1 construct: Guinea pig whole membrane preparations (P2 microsomal fraction); from tissue; host or cells: guinea pig membranes (P2 microsomal fraction), as described by Weber et al; brain inferred from the sister test b489
T1 sequence (Q60492 whole entry): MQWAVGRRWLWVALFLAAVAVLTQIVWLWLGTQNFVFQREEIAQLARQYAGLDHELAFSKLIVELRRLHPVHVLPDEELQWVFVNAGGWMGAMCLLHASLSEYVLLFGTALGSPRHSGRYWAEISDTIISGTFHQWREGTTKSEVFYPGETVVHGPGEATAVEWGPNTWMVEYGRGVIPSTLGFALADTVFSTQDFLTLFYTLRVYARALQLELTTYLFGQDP
Protocol: [^3 H]DTG was purchased from DuPont/NEN.
The radioactivity on the filters was determined by scintillation spectrometry at an efficiency of about 50% using Cytoscint (ICN) scintillation fluid.

5-HT1A receptor = molecular target: T2, 5-HT1A receptor (Rattus norvegicus, UniProt P19327); assay: biochemical; assay type: binding; design: 47: 529-540 (1986); from tissue; host or cells: brain tissue, inferred from the cited method (rat frontal cortex); settings: Table 6; read-out: 5HT-1A (nM) MEAN
T2 sequence (P19327 1-422): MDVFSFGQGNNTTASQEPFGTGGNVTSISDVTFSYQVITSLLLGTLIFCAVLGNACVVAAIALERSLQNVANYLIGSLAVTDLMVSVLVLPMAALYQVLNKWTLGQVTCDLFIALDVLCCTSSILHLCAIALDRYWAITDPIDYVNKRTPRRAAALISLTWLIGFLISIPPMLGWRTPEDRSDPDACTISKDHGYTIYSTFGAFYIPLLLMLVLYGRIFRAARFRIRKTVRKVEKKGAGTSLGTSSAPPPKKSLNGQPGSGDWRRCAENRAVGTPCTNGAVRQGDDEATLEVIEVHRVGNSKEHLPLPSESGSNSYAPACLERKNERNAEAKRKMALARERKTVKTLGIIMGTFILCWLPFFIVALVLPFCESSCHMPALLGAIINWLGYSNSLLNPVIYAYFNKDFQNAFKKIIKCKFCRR
Protocol: Further sigma receptor binding assays against [^3 H]DTG and 5HT-1A binding assays were conducted according to the procedure outlined in the previous examples.

sigma receptor = assay: Sigma receptor binding, [^3 H]DTG, brain membranes (both sigma-1 and sigma-2 sites); design: species or system guinea pig
sigma-2 binding site = molecular target: T3, sigma-2 binding site (Cavia porcellus, UniProt H0V073); assay: biochemical; design: species or system guinea pig
T3 construct: Guinea pig whole membrane preparations (P2 microsomal fraction); from tissue; host or cells: guinea pig membranes (P2 microsomal fraction), as described by Weber et al; brain inferred from the sister test b489
T3 sequence (H0V073 1-176): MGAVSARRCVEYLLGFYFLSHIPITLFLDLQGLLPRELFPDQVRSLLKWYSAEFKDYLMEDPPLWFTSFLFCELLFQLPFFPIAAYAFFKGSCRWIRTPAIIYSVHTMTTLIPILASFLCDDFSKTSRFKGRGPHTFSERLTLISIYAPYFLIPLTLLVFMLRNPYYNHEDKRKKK
Protocol: For the standard equilibrium assay, the mixtures were incubated for 30 min. at room temperature, then filtered and the radioactivity determined as described above.

[1] = Table 10, read-out: SIGMA-1 KI vs. 3H-PENTAZOCINE MEAN
[2] = less than about 0.1, see Table 10
[3] = Table 10, read-out: SIGMA-2 KI vs. 3H-DTG + PENTAZOCINE MEAN
[4] = Table 7, Phenyl-(CH2)x -NH--(CH2)y -Phenyl, read-out: Ki
[5] = Example 9, read-out: sigma-2 IC50
[6] = Table 18, read-out: IC50 (nM) at sigma-2
[7] = running text, Examples 5 and 6, read-out: sigma receptor Ki
[8] = Table 16, read-out: Sigma-1 IC50

SMILES | Ki (sigma-1 binding site; [1]) [nM] | S1/S2 Ratio (sigma-1 binding site; Table 10, sigma-1/sigma-2) | IC50 ratio of sigma-1/sigma-2 (sigma-1 selective compounds) (sigma-1 binding site; [2]) | IC50 (5-HT1A receptor) [nM] | IC50 (sigma receptor; Table 6, [^3 H]DTG) [nM] | Ki (sigma-2 binding site; [3]) [nM] | Ki (sigma receptor; [4]) [nM] | other results
CCOc1ccc(CC(C)NCCCc2ccccc2)cc1 (racemic) [Compound 83, N-(3-phenylpropyl)-1-(p-ethoxyphenyl)-2-propylamine] | 3.38 | 0.101 | less than 0.1 | 77.7 | 7.08 | 33.5 | – | IC50 (sigma-1 binding site; Table 12, read-out: IC50 (nM) at sigma-1): 3.4 nM; IC50 (sigma-2 binding site; Table 17, read-out: IC50 (nM) at sigma-2): 34 nM
CCCN1CCN(c2ccccc2)CC1 [Compound 64, N-Phenyl-N'-propylpiperazine] | 81.6 | – | – | 784 | – | 538 | – | –
c1ccc2cc(CCCNCCCc3ccc4ccccc4c3)ccc2c1 [Compound 70, Di-[3-(2'-Naphthyl)propyl)amine] | – | – | – | 3890 | 116 | 10000 | – | –
c1ccc(CCCCNCCc2ccccc2)cc1 [Compound 71, N-(4-phenylbutyl)phenethylamine] | 2.6 | 0.022 | less than 0.1 | 225 | 5.68 | 119 | 5.5 | IC50 (sigma-2 binding site; [5]): 120 nM
c1ccc(CCCCNCc2ccccc2)cc1 [Compound 75, N-(4-phenylbutyl)benzylamine] | 9.61 | 0.059 | less than 0.1 | 255 | 13.6 | 162 | 13 | IC50 (sigma-2 binding site; [5]): 160 nM
c1ccc(CCCCCNCCCCc2ccccc2)cc1 [Compound 76, N-(5-phenylpentyl)-(4-phenyl)butylamine] | – | – | – | 119 | 2.65 | 68 | 2.5 | IC50 (sigma-1 binding site): 0.48 nM; IC50 ratio of sigma-1/sigma-2 (sigma-1 selective compounds) (sigma-1 binding site): less than 0.1; Ki (sigma-1 binding site; SIGMA-1 KI vs. 3H-P[…]): 0.48 nM; S1/S2 Ratio (sigma-1 binding site; guinea pig, microsomes): 0.007; IC50 (sigma-2 binding site; [6]): 48 nM
c1ccc(CCCCCNCc2ccccc2)cc1 [Compound 77, N-(5-phenylpentyl)benzylamine] | 0.32 | 0.009 | less than 0.1 | 759 | 2.07 | 34.3 | 2 | IC50 (sigma-1 binding site; Table 15, read-out: IC50 (nM) at sigma-1): 0.32 nM; IC50 (sigma-2 binding site; [6]): 34 nM
c1ccc(CCCCN2CCN(Cc3ccccc3)CC2)cc1 [Compound 79, N-(4-phenylbutyl)-N'-benzylpiperazine] | 0.17 | 0.024 | less than 0.1 | 173 | 2.25 | 6.99 | – | –
c1ccc(CCCCCNCCc2ccccc2)cc1 [Compound 89, N-(5-phenylpentyl)phenethylamine] | – | – | – | 106 | 2.74 | 14.6 | 2.4 | Ki (sigma receptor; [7]): 2.4 nM; IC50 (sigma-2 binding site; [6]): 15 nM
c1ccc(CCCCCCCNCc2ccccc2)cc1 [Compound 90, N-(7-phenylheptyl)benzylamine] | – | – | – | 3210 | 3.95 | 38.5 | 3.6 | IC50 ratio of sigma-1/sigma-2 (sigma-1 selective compounds) (sigma-1 binding site): less than 0.1; sigma-2/sigma-1 selectivity (sigma-1 binding site): 126; Ki (sigma-1 binding site; SIGMA-1 KI vs. 3H-P[…]): 2.3 nM; S1/S2 Ratio (sigma-1 binding site; guinea pig, microsomes): 0.060
c1ccc(CCCCCCCNCCc2ccccc2)cc1 [Compound 91, N-(7-phenylheptyl)phenethylamine] | 1.47 | – | – | 732 | 4.07 | 33.2 | 4.1 | IC50 ratio of sigma-1/sigma-2 (sigma-1 selective compounds) (sigma-1 binding site): less than 0.1; S1/S2 Ratio (sigma-1 binding site; guinea pig, microsomes): 0.044; Ki (sigma-1 binding site; sigma-1 binding affinity): 1.5 nM
c1ccc(CNCCCCCC2CCCCC2)cc1 [Compound 94, N-(5-cyclohexylpentyl)benzylamine] | – | – | – | 5550 | 4.02 | 43.6 | – | IC50 (sigma-1 binding site): 0.81 nM; IC50 ratio of sigma-1/sigma-2 (sigma-1 selective compounds) (sigma-1 binding site): less than 0.1; Ki (sigma-1 binding site; SIGMA-1 KI vs. 3H-P[…]): 0.81 nM; S1/S2 Ratio (sigma-1 binding site; guinea pig, microsomes): 0.019; Ki (sigma receptor; Examples 5 and 6, listed as N-benzyl-(5-cyclohexyl)pentylamine, read-out: sigma receptor Ki): 1.3 nM; Ki (sigma receptor; [7]): 3.4 nM
CN1CCN(CC/C=C\c2cccc(C(F)(F)F)c2)CC1 [Compound 105, N-(4-(3-trifluoromethyl)-3-(Z)-butenyl)-N-methylpiperazine] | 1.5 | 0.008 | less than 0.1 | 4960 | 9.5 | 177 | – | –
NCCCCCC1CCCCC1.O=C(O)C(=O)O [Compound 126, 5-Cyclohexylpentylamine Hydrogen Oxalate] | 191 | 0.075 | less than 0.1 | – | 219 | 2550 | – | sigma-2/sigma-1 selectivity (sigma-1 binding site; Example 8): 13; IC50 (sigma-1 binding site; [8]): 190 nM; Ki (sigma receptor; [7]): 200 nM
CNCCCCCC1CCCCC1 [Compound 127, N-methyl-5-cyclohexylpentylamine] | 6.78 | 0.020 | less than 0.1 | – | 10.6 | 346 | – | sigma-2/sigma-1 selectivity (sigma-1 binding site; Example 8): 51; IC50 (sigma-1 binding site; [8]): 6.8 nM; Ki (sigma receptor; [7]): 10 nM
CN(C)CCCCCC1CCCCC1 [Compound 128, N,N-Dimethyl-5-cyclohexylpentylamine] | 0.26 | 0.001 | less than 0.1 | – | 2.87 | 195 | – | sigma-2/sigma-1 selectivity (sigma-1 binding site; Example 8): 650; IC50 (sigma-1 binding site; [8]): 0.26 nM; change in sigma receptor affinity vs. analog (sigma receptor; Examples 5 and 6, [^3 H]DTG): ~10 fold; Ki (sigma receptor; [7]): 2.6 nM
c1ccc(CCCCCN2CCN(Cc3ccccc3)CC2)cc1 [Compound 129, N-Benzyl-N'-(5-phenylpentyl)-piperazine] | 0.41 | .036 | – | – | 2.29 | 11.3 | – | –
C[C@@H](Cc1ccccc1)N(CCCc1ccccc1)Cc1ccccc1 [Compound 134, N-Benzyl-N-(3-phenylpropyl)-1-phenyl-2-propylamine] | – | – | – | – | – | – | – | Ki (sigma-1 binding site; SIGMA-1 KI vs. 3H-P[…]): 128 nM; S1/S2 Ratio (sigma-1 binding site; guinea pig, microsomes): 0.272; IC50 (sigma receptor): 199 nM; Ki (sigma-2 binding site; SIGMA-2 KI vs. 3H-DTG + P[…]): 471 nM
c1ccc(CCCN2CCCCC2)cc1 [Compound 140, N-(3-phenylpropyl)piperidine] | 48.9 | – | – | – | 69 | 147 | – | –
